From US10703764B2, “Benzopiperazine compositions as BET bromodomain inhibitors” (FORMA Therapeutics, Inc., priority 2013, dated 2020)

What was measured:
BRD4 BD1 = target: T1, BRD4 BD1 (Homo sapiens, UniProt O60885); assay: AlphaScreen binding assay, BRD4 Bromodomain 1
T1 construct: made in house
Summary of the method: (§1)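 Compound dilution series were mixed with His-tagged BRD4 bromodomain and biotinylated tetra-acetylated H4 (1-21) peptide at pH 7.3 (BD1 and peptide at 50 nM, BD2 and peptide at 100 nM). Donor and acceptor beads were then added, and plates were equilibrated at least 1 h before reading. IC50 values were fitted with a four-parameter logistic model.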

BRD4 BD2 = target: T2, BRD4 BD2 (Homo sapiens, UniProt O60885); assay: AlphaScreen binding assay, BRD4 Bromodomain 2
T2 construct: made in house
Summary of the method: as §1

| IC50 (BRD4 BD1) | IC50 (BRD4 BD2) | Compound |
| --- | --- | --- |
| > 10 µM | > 0.5 µM | CC(=O)N1c2ccccc2N(C(=O)c2cccs2)C[C@@H]1C [Example I-745] |
| > 10 µM | > 0.5 µM | CC(=O)N1c2ccccc2N(C(=O)c2cc3ccccc3s2)C[C@@H]1C [Example I-746] |
| > 10 µM | > 0.5 µM | COc1cscc1C(=O)N1C[C@H](C)N(C(C)=O)c2ccccc21 [Example I-747] |
| > 10 µM | > 0.5 µM | CC(=O)N1c2ccccc2N(C(=O)c2cc3ccccc3n2C)C[C@@H]1C [Example I-748] |
| > 10 µM | > 0.5 µM | CC(=O)N1c2ccccc2N(C(=O)c2cc(C)oc2C)C[C@@H]1C [Example I-749] |
| > 10 µM | > 0.5 µM | CC(=O)N1c2ccccc2N(C(=O)c2cc(C)c(C)o2)C[C@@H]1C [Example I-750] |
| > 10 µM | > 0.5 µM | CC(=O)N1c2ccccc2N(C(=O)c2cc3ccccc3o2)C[C@@H]1C [Example I-751] |
| > 10 µM | > 0.5 µM | CC(=O)N1c2ccccc2N(C(=O)c2cnc3ccccc3c2)C[C@@H]1C [Example I-752] |
| > 10 µM | > 0.5 µM | COc1cc(C(=O)N2C[C@H](C)N(C(C)=O)c3ccccc32)nc2ccccc12 [Example I-753] |
| > 10 µM | > 0.5 µM | CC(=O)N1c2ccccc2N(C(=O)c2ccnc3ccccc23)C[C@@H]1C [Example I-754] |
| > 10 µM | > 0.5 µM | CC(=O)N1c2ccccc2N(C(=O)c2cc(C)n(C)n2)C[C@@H]1C [Example I-755] |
| > 10 µM | > 0.5 µM | CC(=O)N1c2ccccc2N(C(=O)c2cnn(-c3ccccc3)c2C(F)(F)F)C[C@@H]1C [Example I-756] |
| > 10 µM | > 0.5 µM | CC(=O)N1c2ccccc2N(C(=O)c2snnc2C)C[C@@H]1C [Example I-757] |
| > 10 µM | > 0.5 µM | COc1ncccc1C(=O)N1C[C@H](C)N(C(C)=O)c2ccccc21 [Example I-758] |
| > 10 µM | > 0.5 µM | CC(=O)N1c2ccccc2N(C(=O)c2cc3cc(Cl)ccc3o2)C[C@@H]1C [Example I-759] |
| > 10 µM | > 0.5 µM | CC(=O)N1c2ccccc2N(C(=O)c2ccc3cc[nH]c3c2)CC1C (centres unmarked) [Example I-760] |
| > 10 µM | > 0.5 µM | CC(=O)N1c2ccccc2N(C(=O)c2csc(C(F)(F)F)n2)C[C@@H]1C [Example I-761] |
| > 10 µM | > 0.5 µM | CC(=O)N1c2ccccc2N(C(=O)CC2CCN(S(C)(=O)=O)CC2)C[C@@H]1C [Example I-762] |
| > 10 µM | > 0.5 µM | CC(=O)N1c2ccccc2N(C(=O)c2ccc(F)cn2)C[C@@H]1C [Example I-763] |
| > 10 µM | > 0.5 µM | CC(=O)N1c2ccccc2N(C(=O)CN2CCCCCC2=O)C[C@@H]1C [Example I-764] |
| > 10 µM | > 0.5 µM | CC(=O)N1c2ccccc2N(C(=O)CCN2CCCCCC2=O)C[C@@H]1C [Example I-765] |
| > 10 µM | > 0.5 µM | CC(=O)N1c2ccccc2N(C(=O)Cn2cnc3ccccc32)C[C@@H]1C [Example I-766] |

| IC50 (BRD4 BD1) | IC50 (BRD4 BD2) | Compound |
| --- | --- | --- |
| > 10 µM | > 0.5 µM | CC(=O)N1c2ccccc2N(C(=O)CN2CCS(=O)(=O)CC2)C[C@@H]1C [Example I-767] |
| > 10 µM | > 0.5 µM | CC(=O)N1c2ccccc2N(C(=O)c2c(C)noc2C)C[C@@H]1C [Example I-768] |
| > 10 µM | > 0.5 µM | CC(=O)N1c2ccccc2N(C(=O)Cc2nc(-c3ccccc3)oc2C)C[C@@H]1C [Example I-769] |
| > 10 µM | > 0.5 µM | CC(=O)N1c2ccccc2N(C(=O)c2cccc3[nH]ccc23)CC1C (centres unmarked) [Example I-770] |
| > 10 µM | > 0.5 µM | CC(=O)N1c2ccccc2N(C(=O)c2cc3ccccn3n2)C[C@@H]1C [Example I-771] |
| > 10 µM | > 0.5 µM | CC(=O)N1c2ccccc2N(C(=O)COCC(C)C)C[C@@H]1C [Example I-772] |
| > 10 µM | > 0.5 µM | CC(=O)N1c2ccccc2N(C(=O)c2cnn3c2OCCC3)C[C@@H]1C [Example I-773] |
| > 10 µM | > 0.5 µM | CC(=O)N1c2ccccc2N(C(=O)c2cc3n(n2)CCC3)C[C@@H]1C [Example I-774] |
| > 10 µM | > 0.5 µM | CC(=O)N1c2ccccc2N(C(=O)c2cc3ccncc3s2)C[C@@H]1C [Example I-775] |
| > 10 µM | > 0.5 µM | CC(=O)N1c2ccccc2N(C(=O)c2ccc3nccn3c2)C[C@@H]1C [Example I-776] |
| > 10 µM | > 0.5 µM | CC(=O)N1c2ccccc2N(C(=O)c2cc3ccncc3o2)C[C@@H]1C [Example I-777] |
| > 10 µM | > 0.5 µM | CC(=O)N1c2ccc(-c3ccc(S(C)(=O)=O)cc3)cc2N(C(=O)c2cn3ccncc3n2)C[C@@H]1C [Example I-779] |
| > 10 µM | 0.05 to 0.5 µM | CC(=O)N1c2ccc(-c3ccc(S(C)(=O)=O)cc3)cc2N(C(=O)c2ccccn2)C[C@@H]1C [Example I-782] |
| 1 to 10 µM | > 0.5 µM | CC(=O)N1c2ccc(-c3ccc(S(C)(=O)=O)cc3)cc2N(C(=O)c2csnn2)C[C@@H]1C [Example I-783] |
| > 10 µM | > 0.5 µM | CC(=O)N1c2ccc(-c3ccc(S(C)(=O)=O)cc3)cc2N(C(=O)c2nccn2C)C[C@@H]1C [Example I-784] |
| 1 to 10 µM | 0.05 to 0.5 µM | CC(=O)N1c2ccc(-c3ccc(S(C)(=O)=O)cc3)cc2N(C(=O)c2cc3cc(Cl)ccc3[nH]2)CC1C (centres unmarked) [Example I-785] |
| 1 to 10 µM | 0.05 to 0.5 µM | CC(=O)N1c2ccc(-c3ccc(S(C)(=O)=O)cc3)cc2N(C(=O)c2cc3ccc(Cl)cc3[nH]2)CC1C (centres unmarked) [Example I-787] |
| > 10 µM | > 0.5 µM | CC(=O)N1c2ccc(-c3ccc(S(C)(=O)=O)cc3)cc2N(C(=O)c2cc3cc(OC(F)(F)F)ccc3[nH]2)CC1C (centres unmarked) [Example I-788] |
| > 10 µM | > 0.5 µM | CC(=O)N1c2ccc(-c3ccc(S(C)(=O)=O)cc3)cc2N(C(=O)c2oc3ccccc3c2-c2ccccc2)C[C@@H]1C [Example I-790] |
| > 10 µM | > 0.5 µM | CC(=O)N1c2ccc(-c3ccc(-c4ccccc4)cc3)cc2N(C(=O)COc2ccccc2)C[C@@H]1C [Example I-797] |
| 1 to 10 µM | < 0.05 µM | CC(=O)N1c2ccc(-c3cccc(C(=O)NC4CC4)c3)cc2N(C(=O)c2ccco2)C[C@@H]1C [Example I-802] |
| 1 to 10 µM | 0.05 to 0.5 µM | CC(=O)N1c2ccc(-c3ccc(-n4cccn4)cc3)cc2N(C(=O)c2ccco2)C[C@@H]1C [Example I-803] |

| IC50 (BRD4 BD1) | IC50 (BRD4 BD2) | Compound |
| --- | --- | --- |
| 1 to 10 µM | 0.05 to 0.5 µM | CC(=O)N1c2ccc(-c3ccc(Cl)cc3)cc2N(C(=O)c2ccco2)C[C@@H]1C [Example I-805] |
| 1 to 10 µM | 0.05 to 0.5 µM | CC(=O)N1c2ccc(-c3ccc(OC(F)(F)F)cc3)cc2N(C(=O)c2ccco2)C[C@@H]1C [Example I-808] |
| 1 to 10 µM | < 0.05 µM | CC(=O)N1c2ccc(-c3ccc(C#N)cc3)cc2N(C(=O)c2ccco2)C[C@@H]1C [Example I-811] |
| 1 to 10 µM | < 0.05 µM | CC(=O)N1c2ccc(-c3cccc(C#N)c3)cc2N(C(=O)c2ccco2)C[C@@H]1C [Example I-812] |
| 1 to 10 µM | 0.05 to 0.5 µM | CC(=O)N1c2ccc(-c3ccc(Oc4ccccc4)cc3)cc2N(C(=O)c2ccco2)C[C@@H]1C [Example I-813] |
| 1 to 10 µM | < 0.05 µM | CC(=O)N1c2ccc(-c3ccc(-n4cccn4)c(F)c3)cc2N(C(=O)c2ccco2)C[C@@H]1C [Example I-814] |
| 1 to 10 µM | 0.05 to 0.5 µM | CC(=O)N1c2ccc(-c3ccc(C(F)(F)F)cc3)cc2N(C(=O)c2ccco2)C[C@@H]1C [Example I-815] |
| > 10 µM | > 0.5 µM | CC(=O)N1c2ccc(-c3c(C)noc3C)cc2N(C(=O)c2ccco2)C[C@@H]1C [Example I-816] |
| 1 to 10 µM | < 0.05 µM | CC(=O)N1c2ccc(-c3ccc(F)cc3)cc2N(C(=O)c2ccco2)C[C@@H]1C [Example I-818] |
| 1 to 10 µM | 0.05 to 0.5 µM | CC(=O)N1c2ccc(-c3cccnc3)cc2N(C(=O)c2ccco2)C[C@@H]1C [Example I-819] |
| 1 to 10 µM | < 0.05 µM | CC(=O)N1c2ccc(-c3ccncc3)cc2N(C(=O)c2ccco2)C[C@@H]1C [Example I-820] |
| > 10 µM | 0.05 to 0.5 µM | CC(=O)N1c2ccc(-c3cncnc3)cc2N(C(=O)c2ccco2)C[C@@H]1C [Example I-821] |
| 1 to 10 µM | 0.05 to 0.5 µM | CC(=O)N1c2ccc(-c3cnc4ccccc4c3)cc2N(C(=O)c2ccco2)C[C@@H]1C [Example I-823] |
| > 10 µM | > 0.5 µM | COc1cc(F)ccc1-c1ccc2c(c1)N(C(=O)c1ccco1)C[C@H](C)N2C(C)=O [Example I-826] |
| > 10 µM | > 0.5 µM | CC(=O)N1c2ccc(-c3ccccc3NS(C)(=O)=O)cc2N(C(=O)c2ccco2)C[C@@H]1C [Example I-827] |
| 1 to 10 µM | 0.05 to 0.5 µM | COc1cc(-c2ccc3c(c2)N(C(=O)c2ccco2)C[C@H](C)N3C(C)=O)ccc1F [Example I-828] |
| 1 to 10 µM | < 0.05 µM | CC(=O)N1c2ccc(-c3ccc(F)c(C(=O)NC(C)C)c3)cc2N(C(=O)c2ccco2)C[C@@H]1C [Example I-829] |
| 1 to 10 µM | 0.05 to 0.5 µM | CC(=O)N1c2ccc(-c3cncc(F)c3)cc2N(C(=O)c2ccco2)C[C@@H]1C [Example I-830] |
| 1 to 10 µM | < 0.05 µM | CC(=O)N1c2ccc(-c3cnc(N(C)C)nc3)cc2N(C(=O)c2ccco2)C[C@@H]1C [Example I-831] |
| 1 to 10 µM | 0.05 to 0.5 µM | CC(=O)N1c2ccc(-c3cncc(Cl)c3)cc2N(C(=O)c2ccco2)C[C@@H]1C [Example I-832] |
